Results as given in paper PMC11915075, “Dibenzo [a, c] phenazin-11-yl(phenyl) methanone (SBLJ23), a novel selective inhibitor targeting JAK2^V617F mutation in myeloproliferative neoplasms” (Oncology Research, 2025).

Biological target: JAK2 (Homo sapiens, UniProt O60674)
Test: biochemical

Sequence of JAK2 (O60674 whole entry): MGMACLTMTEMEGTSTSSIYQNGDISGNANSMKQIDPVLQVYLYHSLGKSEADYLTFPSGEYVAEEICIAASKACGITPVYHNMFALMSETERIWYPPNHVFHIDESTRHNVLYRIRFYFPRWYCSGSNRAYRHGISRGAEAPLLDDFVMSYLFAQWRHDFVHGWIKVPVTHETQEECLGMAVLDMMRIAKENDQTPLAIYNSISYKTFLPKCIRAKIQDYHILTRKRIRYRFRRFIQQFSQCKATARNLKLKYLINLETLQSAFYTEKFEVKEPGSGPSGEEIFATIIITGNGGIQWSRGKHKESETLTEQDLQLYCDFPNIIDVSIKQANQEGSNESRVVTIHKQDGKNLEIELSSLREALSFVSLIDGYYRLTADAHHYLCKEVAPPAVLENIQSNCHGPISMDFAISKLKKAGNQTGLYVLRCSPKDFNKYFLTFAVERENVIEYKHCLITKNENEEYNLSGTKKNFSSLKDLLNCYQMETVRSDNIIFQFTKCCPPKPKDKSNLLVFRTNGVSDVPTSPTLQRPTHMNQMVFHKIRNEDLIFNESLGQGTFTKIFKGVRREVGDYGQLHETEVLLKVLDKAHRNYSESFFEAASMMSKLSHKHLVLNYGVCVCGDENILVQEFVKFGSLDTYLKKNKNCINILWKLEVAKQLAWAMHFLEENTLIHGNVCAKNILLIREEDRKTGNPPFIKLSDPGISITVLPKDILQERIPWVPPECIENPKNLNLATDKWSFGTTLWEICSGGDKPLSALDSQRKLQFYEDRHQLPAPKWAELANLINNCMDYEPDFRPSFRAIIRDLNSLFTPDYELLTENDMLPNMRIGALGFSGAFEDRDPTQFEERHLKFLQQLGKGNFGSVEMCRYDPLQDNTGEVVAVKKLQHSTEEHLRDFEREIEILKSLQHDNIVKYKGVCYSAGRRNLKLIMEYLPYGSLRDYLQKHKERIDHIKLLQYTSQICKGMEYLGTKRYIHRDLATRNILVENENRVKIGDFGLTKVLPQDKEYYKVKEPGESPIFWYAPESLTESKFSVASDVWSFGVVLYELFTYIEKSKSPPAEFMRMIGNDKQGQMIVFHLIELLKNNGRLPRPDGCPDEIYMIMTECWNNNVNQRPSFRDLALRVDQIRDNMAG

O=C(c1ccccc1)c1ccc2nc3c4ccccc4c4ccccc4c3nc2c1 [SBLJ23, Dibenzo [a, c] phenazin-11-yl(phenyl) methanone]
IC50: 522 nM
